From ChEMBL document CHEMBL1201862, “PubChem BioAssay data set” (2004)
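A five-concentration, 48-hour dose response in 96-well plates underlies each endpoint, interpolated linearly between surrounding concentrations. Here, GI50 denotes the concentration required for 50% inhibition of growth.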 The source made the active and inactive calls. No stated cut-off is given here; in the data, active = GI50 up to about 1.1 µM and inactive = higher.

Assays:
Assay in all cases: DTP human tumour cell line panel, 48 h
SK-MEL-5 = test system: SK-MEL-5
NCI-H23 = test system: NCI-H23
NCI-H460 = test system: NCI-H460
SF-539 = test system: SF-539
Malme-3M = test system: Malme-3M
CCRF-CEM = test system: CCRF-CEM
EKVX = test system: EKVX
ACHN = test system: ACHN
SR = test system: SR
CAKI-1 = test system: CAKI-1
HCT-15 = test system: HCT-15
NCI/ADR-RES = test system: NCI/ADR-RES
SF-295 = test system: SF-295
OVCAR-3 = test system: OVCAR-3
HT-29 = test system: HT-29
SNB-19 = test system: SNB-19
HL-60 = test system: HL-60
UO-31 = test system: UO-31
HOP-92 = test system: HOP-92
SK-MEL-28 = test system: SK-MEL-28

| SMILES | GI50 (SK-MEL-5) | GI50 (NCI-H23) | GI50 (NCI-H460) | GI50 (SF-539) | GI50 (Malme-3M) | GI50 (CCRF-CEM) | GI50 (EKVX) | GI50 (ACHN) | GI50 (SR) | GI50 (CAKI-1) | GI50 (HCT-15) [µM] | GI50 (NCI/ADR-RES) | GI50 (SF-295) | GI50 (OVCAR-3) | GI50 (HT-29) | GI50 (SNB-19) | GI50 (HL-60) | GI50 (UO-31) | GI50 (HOP-92) | GI50 (SK-MEL-28) |
| --- | --- | --- | --- | --- | --- | --- | --- | --- | --- | --- | --- | --- | --- | --- | --- | --- | --- | --- | --- | --- |
| Cc1ccc(S(=O)(=O)Nc2cc(O)nc3c2CCC3)cc1 | 73.5 µM (inactive) | > 100 µM (inactive) | > 100 µM (inactive) | > 100 µM (inactive) | > 100 µM (inactive) | > 100 µM (inactive) | > 100 µM (inactive) | > 100 µM (inactive) | > 100 µM (inactive) | > 100 µM (inactive) | > 100 | > 100 µM (inactive) | > 100 µM (inactive) | > 100 µM (inactive) | > 100 µM (inactive) | > 100 µM (inactive) | 34 µM (inactive) | > 100 µM (inactive) | > 100 µM (inactive) | > 100 µM (inactive) |
| Nc1cccc2nsnc12 | 36.3 µM (inactive) | > 100 µM (inactive) | > 84.1 µM (inactive) | > 100 µM (inactive) | > 100 µM (inactive) | 11.9 µM (inactive) | > 91.8 µM (inactive) | > 95.7 µM (inactive) | 4.2 µM (inactive) | 74.3 µM (inactive) | > 76.7 | > 100 µM (inactive) | > 88.7 µM (inactive) | > 94.8 µM (inactive) | > 100 µM (inactive) | > 100 µM (inactive) | 3.31 µM (inactive) | > 40.5 µM (inactive) | > 100 µM (inactive) | > 100 µM (inactive) |
| COc1ccc(S(=O)(=O)N2C(=O)CCC2C(=O)NN)cc1 (centres undefined) | > 100 µM (inactive) | > 100 µM (inactive) | > 100 µM (inactive) | > 100 µM (inactive) | > 100 µM (inactive) | > 100 µM (inactive) | > 100 µM (inactive) | > 100 µM (inactive) | > 100 µM (inactive) | > 100 µM (inactive) | > 100 | > 100 µM (inactive) | > 100 µM (inactive) | > 100 µM (inactive) | > 100 µM (inactive) | > 100 µM (inactive) | > 100 µM (inactive) | > 100 µM (inactive) | > 100 µM (inactive) | > 100 µM (inactive) |
| O=C1C(/N=N/c2ccc(-c3nc4ccccc4o3)cc2)NC(=S)N1c1ccccc1 (centres undefined) | 49.1 µM (inactive) | > 100 µM (inactive) | 70.3 µM (inactive) | > 100 µM (inactive) | > 100 µM (inactive) | 0.0479 µM (active) | 49.3 µM (inactive) | > 100 µM (inactive) | 28.5 µM (inactive) | 90.8 µM (inactive) | 62.8 | 73.5 µM (inactive) | > 100 µM (inactive) | 23.6 µM (inactive) | > 100 µM (inactive) | > 100 µM (inactive) | 0.13 µM (active) | > 100 µM (inactive) | 59.6 µM (inactive) | > 100 µM (inactive) |
| CCOC(=O)c1csc(C(CSCc2ccc(OC)cc2)N2C(=O)c3ccccc3C2=O)n1 (centres undefined) | > 100 µM (inactive) | > 100 µM (inactive) | > 100 µM (inactive) | > 100 µM (inactive) | > 100 µM (inactive) | 35.9 µM (inactive) | > 100 µM (inactive) | > 100 µM (inactive) | 26.5 µM (inactive) | > 100 µM (inactive) | 62.7 | > 100 µM (inactive) | > 100 µM (inactive) | > 100 µM (inactive) | 87.7 µM (inactive) | > 100 µM (inactive) | 33.7 µM (inactive) | > 100 µM (inactive) | > 100 µM (inactive) | > 100 µM (inactive) |
| N#C/C(=C/n1c(=S)[nH]c2ccccc21)C(N)=O | > 100 µM (inactive) | > 100 µM (inactive) | > 100 µM (inactive) | > 100 µM (inactive) | > 100 µM (inactive) | > 100 µM (inactive) | > 100 µM (inactive) | > 100 µM (inactive) | > 100 µM (inactive) | > 100 µM (inactive) | > 100 | > 100 µM (inactive) | > 100 µM (inactive) | > 100 µM (inactive) | > 100 µM (inactive) | > 100 µM (inactive) | 16.7 µM (inactive) | > 100 µM (inactive) | 11 µM (inactive) | > 100 µM (inactive) |
| CC(=O)c1cccc(NC(=O)C(=O)C(c2cnc3ccc([N+](=O)[O-])cc3n2)[N+](=O)[O-])c1 (centres undefined) | – | > 100 µM (inactive) | > 100 µM (inactive) | > 100 µM (inactive) | > 100 µM (inactive) | 36.4 µM (inactive) | > 100 µM (inactive) | > 100 µM (inactive) | 52.1 µM (inactive) | > 100 µM (inactive) | > 100 | 95.5 µM (inactive) | 66.7 µM (inactive) | > 100 µM (inactive) | > 100 µM (inactive) | > 100 µM (inactive) | 37.9 µM (inactive) | 38.5 µM (inactive) | > 100 µM (inactive) | > 100 µM (inactive) |
